According to patent US20230219961A1, “Pyridine acetamide derivative serving as CDK inhibitor, and preparation method therefor and use thereof” (Suzhou AlphaMa Biotechnology Co., Ltd., priority 2020, published 2023):

How the values were obtained:
[1] = test system: Mv4-11 cells; experiment: Inhibition of the proliferation of Mv4-11 cells (CCK8); assay type: cell-based
Description: The inhibition effect of the compounds of the present disclosure on the proliferation of Mv4-11 cells (ATCC:CRL-9591™) in vitro was determined by the following method:
1) Cell inoculation: Mv4-11 cells with good growing state in logarithmic growth phase were inoculated into a 96-well plate at 20000 cells per well and 50 uL, and cultured at 37° C. and under 5% CO2 condition for 2-4 h.
2) Administration: The compound was diluted with 1640 medium containing 10% FBS and 1% PS: 0.4 uL of the compound with an initial concentration of 1 mM was placed in a dilution plate, each added with 199.6 uL of the above culture medium, and gradiently diluted 4-fold, so that the final concentration in the added cell was 1000, 250, 62.5, 15.625, 3.91, 0.98, 0.24, 0.06 nM. 50 µL of the medium containing the compound was sequentially added, and it was placed in a 37° C., 5% CO2 cell incubator for 48 hours.
3) Detection: 10uL CCK8 (Dojindo, CK 04) solution was added to each well, incubated in 37° C. 5% CO2 cell incubator for 2 hours, and then the OD450 value was read by Synegry H1(BioTek) multimode microplate reader.
4) Calculation: The IC50 value was calculated using Graphpad prism 5.0 software according to the concentration of the compound and the corresponding signal value.

[2] = biological target: T1, CDK7 (Homo sapiens, UniProt P50613); experiment: Inhibitory effect on the kinase activity of CDK7 in vitro (Caliper); assay type: biochemical; details: 77 uM ATP, 0.2 ug/uL CTD3 peptide; read-out: CDK 7 IC50
T1 construct: purchased Eurofilns (sic; Eurofins) 14-476 M
Description: (§1) The detection of the inhibitory effect of the compounds of the present disclosure on the kinase activity of CDK7/CDK9 in vitro was determined by the following method:
(§2) 1) The compound was accurately weighed and dissolved in DMSO (Sigma, D2650) to a concentration of 100 mM for later use. The compound was diluted to 5-fold of a desired highest concentration, and diluted 4-fold into 6 concentration gradients, allowing the final concentration of the compound in the reaction system to be CDK7: 3000, 750, 188, 47, 12, 3 nM; CDK9: 100, 25, 6.25, 1.56, 0.39, 0.098 nM. 5 ul was taken to a 384-well plate (Corning, 4512).
(§3) 2) Kinase reaction: 10uL protein kinase (CDK7: Eurofilns,14-476 M; CDK9: Millipore,14-685 M) solution was added to the 384-well plate (Corning, 4512) containing the compound, and allowed to stand at room temperature for 10 min; a mixed solution of ATP(Sigma, A7699) and substrate polypeptide (CDK7: 77 uM ATP&0.2ug/uL CTD3 peptide (GL Biochem,SY356885); CDK9: 10 uM ATP&0.2 ug/uL CTD3 peptide (GL Biochem,SY356885)) was added, and allowed to stand at 28° C. for a short time; and then a stop solution was added to terminate the reaction at 25 uL per well.
(§4) 3) Detection: Data was collected by Caliper.
(§5) 4) Calculation: The IC50 value was calculated by Graphpad prism 5.0 software according to the concentration of the compound and the corresponding signal value.

[3] = biological target: T2, CDK9 (Homo sapiens, UniProt P50750); experiment: Inhibitory effect on the kinase activity of CDK9 in vitro (Caliper); assay type: biochemical; details: 10 uM ATP, 0.2 ug/uL CTD3 peptide; read-out: CDK 9 IC50
T2 construct: purchased Millipore 14-685 M
Description: as §1, §2, §3, §4, §5

T1 sequence (P50613 whole entry): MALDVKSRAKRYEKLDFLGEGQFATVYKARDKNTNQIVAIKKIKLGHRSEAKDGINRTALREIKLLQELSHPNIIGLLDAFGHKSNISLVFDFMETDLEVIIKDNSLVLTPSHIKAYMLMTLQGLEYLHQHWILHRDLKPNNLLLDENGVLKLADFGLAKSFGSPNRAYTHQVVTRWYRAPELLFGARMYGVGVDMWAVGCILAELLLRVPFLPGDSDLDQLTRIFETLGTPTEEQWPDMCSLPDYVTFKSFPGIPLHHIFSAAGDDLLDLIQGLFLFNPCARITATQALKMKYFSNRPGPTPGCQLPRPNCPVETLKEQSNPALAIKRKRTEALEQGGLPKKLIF
T1 sequence (P51946 whole entry partner): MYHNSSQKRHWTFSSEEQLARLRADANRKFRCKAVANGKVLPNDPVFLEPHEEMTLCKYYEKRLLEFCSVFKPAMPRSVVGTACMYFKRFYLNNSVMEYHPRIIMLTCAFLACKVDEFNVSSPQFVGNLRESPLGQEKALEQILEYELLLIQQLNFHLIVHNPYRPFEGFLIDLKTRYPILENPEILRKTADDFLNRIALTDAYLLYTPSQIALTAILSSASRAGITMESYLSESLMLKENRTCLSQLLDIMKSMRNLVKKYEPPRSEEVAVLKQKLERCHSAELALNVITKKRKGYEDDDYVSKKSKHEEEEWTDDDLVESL
T1 sequence (P51948 whole entry partner): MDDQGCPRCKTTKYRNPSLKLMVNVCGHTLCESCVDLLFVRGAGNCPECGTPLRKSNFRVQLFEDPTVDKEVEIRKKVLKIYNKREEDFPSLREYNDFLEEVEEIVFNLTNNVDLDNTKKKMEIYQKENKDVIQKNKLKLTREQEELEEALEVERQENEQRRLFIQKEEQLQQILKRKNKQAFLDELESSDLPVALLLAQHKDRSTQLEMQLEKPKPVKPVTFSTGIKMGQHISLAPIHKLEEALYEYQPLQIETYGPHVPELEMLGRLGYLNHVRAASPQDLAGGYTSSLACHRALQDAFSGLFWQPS
T2 sequence (P50750 whole entry): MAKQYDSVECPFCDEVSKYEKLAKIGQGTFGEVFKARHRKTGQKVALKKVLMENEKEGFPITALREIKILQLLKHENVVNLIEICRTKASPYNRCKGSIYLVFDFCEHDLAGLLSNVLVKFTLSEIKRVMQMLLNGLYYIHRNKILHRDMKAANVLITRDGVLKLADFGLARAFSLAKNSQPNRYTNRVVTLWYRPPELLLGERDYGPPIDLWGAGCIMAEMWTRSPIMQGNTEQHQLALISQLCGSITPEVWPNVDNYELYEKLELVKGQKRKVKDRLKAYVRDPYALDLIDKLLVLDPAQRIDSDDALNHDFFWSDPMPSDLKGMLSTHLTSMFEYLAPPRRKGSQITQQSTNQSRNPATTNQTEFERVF
T2 sequence (O60563 whole entry partner): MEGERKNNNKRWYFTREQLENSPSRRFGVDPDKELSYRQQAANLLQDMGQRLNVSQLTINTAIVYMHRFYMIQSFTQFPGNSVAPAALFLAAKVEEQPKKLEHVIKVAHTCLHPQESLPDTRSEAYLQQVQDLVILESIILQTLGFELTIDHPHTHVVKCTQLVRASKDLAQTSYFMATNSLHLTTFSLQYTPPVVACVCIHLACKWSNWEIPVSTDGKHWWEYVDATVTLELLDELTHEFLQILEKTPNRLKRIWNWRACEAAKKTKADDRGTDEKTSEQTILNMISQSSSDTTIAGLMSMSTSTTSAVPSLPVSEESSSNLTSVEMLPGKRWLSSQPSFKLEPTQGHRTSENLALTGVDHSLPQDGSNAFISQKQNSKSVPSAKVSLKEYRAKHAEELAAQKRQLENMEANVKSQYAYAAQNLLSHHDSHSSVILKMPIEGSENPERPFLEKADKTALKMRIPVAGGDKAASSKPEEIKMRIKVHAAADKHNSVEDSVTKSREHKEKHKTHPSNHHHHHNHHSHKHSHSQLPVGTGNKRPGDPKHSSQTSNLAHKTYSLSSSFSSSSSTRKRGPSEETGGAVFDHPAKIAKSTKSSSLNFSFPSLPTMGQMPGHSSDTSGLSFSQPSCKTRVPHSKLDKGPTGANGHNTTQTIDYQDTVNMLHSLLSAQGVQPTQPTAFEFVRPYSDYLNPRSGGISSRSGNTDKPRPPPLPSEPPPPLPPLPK

IC50 ([1]; Homo sapiens, MV4-11, 48 h)	IC50 [2]	IC50 [3]	IC50 ([1]; 48 hours)	SMILES
4.2 nM	109 nM	–	–	CC(=O)N[C@@H]1CCC[C@H](C(=O)Nc2cc(-c3cnn4c3CC(C)(C)C4)c(Cl)cn2)C1 [AZD4573, reference compound]
7.4 nM	96 nM	3 nM	–	CC1(C)Cc2c(-c3cc(NC(=O)Cc4cccc(C(N)=O)c4)ncc3Cl)cnn2C1 [Compound 1, 3-(2-((5-chloro-4-(5,5-dimethyl-5,6-dihydro-4H-pyrrolo[1,2-b]pyrazol-3-yl)pyridin-2-yl)amino)-2-oxoethyl)benzamide]
> 1000 nM	–	–	–	C[C@H](C(=O)Nc1cc(-c2cnn3c2CC(C)(C)C3)c(Cl)cn1)c1cccc(C(N)=O)c1 [Compound 2-1, (S)-3-(1-((5-chloro-4-(5,5-dimethyl-5,6-di hydro-4H-pyrrolo[1,2-b]pyrazol-3-yl)pyridin-2-yl)amino)-1-oxopropan-2-yl)benzamide (assumed)]
10.7 nM	–	–	–	CC1(C)Cc2c(-c3cc(NC(=O)Cc4cccc(C#N)c4)ncc3Cl)cnn2C1 [Compound 4, N-(5-chloro-4-(5,5-dimethyl-5,6-dihydro-4 H-pyrrolo[1,2-b]pyrazol-3-yl)pyridin-2-yl) -2-(3-cyanophenyl)acetamide]
26 nM	–	–	–	CC1(C)Cc2c(-c3cc(NC(=O)Cc4ccncc4)ncc3Cl)cnn2C1 [Compound 5, N-(5-chloro-4-(5,5-dimethyl-5,6-dihydro-4 H-pyrrolo[1,2-b]pyrazol-3-yl)pyridin-2-yl) -2-(pyridin-4-yl)acetamide]
9.9 nM	197 nM	3.1 nM	–	CC1(C)Cc2c(-c3cc(NC(=O)Cc4cccnc4)ncc3Cl)cnn2C1 [Compound 6, N-(5-chloro-4-(5,5-dimethyl-5,6-dihydro-4 H-pyrrolo[1,2-b]pyrazol-3-yl)pyridin-2-yl) -2-(pyridin-3-yl)acetamide]
8.2 nM	118 nM	1.7 nM	–	CC1(C)Cc2c(-c3cc(NC(=O)Cc4cccc(C#N)n4)ncc3Cl)cnn2C1 [Compound 7, N-(5-chloro-4-(5,5-dimethyl-5,6-dihydro-4 H-pyrrolo[1,2-b]pyrazol-3-yl)pyridin-2-yl) -2-(6-cyanopyridin-2-yl)acetamide]
19.6 nM	116 nM	3.4 nM	–	CC(=O)Nc1cccc(CC(=O)Nc2cc(-c3cnn4c3CC(C)(C)C4)c(Cl)cn2)c1 [Compound 8, 2-(3-acetylaminophenyl)-N-(5-chloro-4-(5,5-dimethyl-5,6-dihydro-4H-pyrrolo[1,2-b]pyrazol-3-yl)pyridin-2-yl)acetamide]
13 nM	–	–	–	CC1(C)Cc2c(-c3cc(NC(=O)Cc4cccc(NC(=O)CC#N)c4)ncc3Cl)cnn2C1 [Compound 9, N-(5-chloro-4-(5,5-dimethyl-5,6-dihydro-4 H-pyrrolo[1,2-b]pyrazol-3-yl)pyridin-2-yl) -2-(3-(2-cyanoacetylamino)phenyl)acetamide]
893 nM	–	–	–	C[C@H](C(=O)Nc1cc(-c2cnn3c2CC(C)(C)C3)c(Cl)cn1)c1cccnc1 [Compound 11-1, (S)-N-(5-chloro-4-(5,5-dimethyl-5,6-dihydro-4H-pyrrolo[1,2-b]pyrazol-3-yl)pyridin-2-yl)-2-(pyridin-3-yl)propionamide (assumed)]
12.2 nM	–	5.2 nM	–	COc1ccc(CC(=O)Nc2cc(-c3cnn4c3CC(C)(C)C4)c(Cl)cn2)cn1 [Compound 12, N-(5-chloro-4-(5,5-dimethyl-5,6-dihydro-4 H-pyrrolo[1,2-b]pyrazol-3-yl)pyridin-2-yl) -2-(6-methoxypyridin-3-yl)acetamide]
10.1 nM	–	2.3 nM	–	CC(=O)Nc1cccc([C@H](C)C(=O)Nc2cc(-c3cnn4c3CC(C)(C)C4)c(Cl)cn2)c1 [Compound 14-1, (S)-2-(3-acetylacetylaminophenyl)-N-(5-chloro-4-(5,5-dimethyl-5,6-dihydro-4H-pyrrolo [1,2-b]pyrazol-3-yl)pyridin-2-yl)propionamide (assumed)]
136 nM	–	–	–	CC(=O)Nc1cccc([C@@H](C)C(=O)Nc2cc(-c3cnn4c3CC(C)(C)C4)c(Cl)cn2)c1 [Compound 14-2, (R)-2-(3-acetylaminophenyl)-N-(5-chloro-4-(5,5-dimethyl-5,6-dihydro-4H-pyrrolo[1,2-b]pyrazol-3-yl)pyridin-2-yl)propionamide (assumed)]
11.2 nM	–	5.9 nM	–	C[C@H](C(=O)Nc1cc(-c2cnn3c2CC(C)(C)C3)c(Cl)cn1)c1ccnc(C#N)c1 [Compound 15-1, (S)-N-(5-chloro-4-(5,5-dimethyl-5,6-dihydro-4H-pyrrolo[1,2-b]pyrazol-3-yl)pyridin-2-yl)-2-(2-cyanopyridin-4-yl)propionamide (assumed)]
161 nM	–	–	–	C[C@@H](C(=O)Nc1cc(-c2cnn3c2CC(C)(C)C3)c(Cl)cn1)c1ccnc(C#N)c1 [Compound 15-2, (R)-N-(5-chloro-4-(5,5-dimethyl-5,6-dihydro-4H-pyrrolo[1,2-b]pyrazol-3-yl)pyridin-2-yl)-2-(2-cyanopyridin-4-yl)propionamide (assumed)]
6.4 nM	–	3.4 nM	–	COc1cc([C@H](C)C(=O)Nc2cc(-c3cnn4c3CC(C)(C)C4)c(Cl)cn2)ccn1 [Compound 16-1, (S)-N-(5-chloro-4-(5,5-dimethyl-5,6-dihydro-4H-pyrrolo[1,2-b]pyrazol-3-yl)pyridin-2-yl)-2-(2-methoxypyridin-4-yl)propionamide (assumed)]
469 nM	–	–	–	COc1cc([C@@H](C)C(=O)Nc2cc(-c3cnn4c3CC(C)(C)C4)c(Cl)cn2)ccn1 [Compound 16-2, (R)-N-(5-chloro-4-(5,5-dimethyl-5,6-dihydro-4H-pyrrolo[1,2-b]pyrazol-3-yl)pyridin-2-yl)-2-(2-methoxypyridin-4-yl)propionamide (assumed)]
25 nM	74 nM	3 nM	–	C[C@@H](C(=O)Nc1cc(-c2cnn3c2CC(C)(C)C3)c(Cl)cn1)c1ccnc(C(C)(C)O)c1 [Compound 18-2, (R)-N-(5-chloro-4-(5,5-dimethyl-5,6-dihydro-4H-pyrrolo[1,2-b]pyrazol-3-yl)pyridin-2-yl)-2-(2-(2-hydroxypropan-2-yl)pyridin-4-yl)propionamide (assumed)]
–	–	–	13.9 nM	C[C@H](C(=O)Nc1cc(-c2cnn3c2CC(C)(C)C3)c(Cl)cn1)c1ccc(-c2cccnc2)nc1 [Compound 19-1, (S)-2-([2,3′-bipyridin]-5-yl)-N-(5-chloro-4-(5,5-dimethyl-5,6-dihydro-4H-pyrrolo[1,2-b]pyrazol-3-yl)pyridin-2-yl)propionamide (assumed)]
3.7 nM	25.1 nM	8.4 nM	–	C=CC(=O)NCc1ccc(-c2ccc([C@H](C)C(=O)Nc3cc(-c4cnn5c4CC(C)(C)C5)c(Cl)cn3)cn2)cn1 [Compound 20-1, (S)-N-((5-(1-((5-chloro-4-(5,5-dimethyl-5,6-dihydro-4H-pyrrolo[1,2-b]pyrazol-3-yl)pyridin-2-yl)amino)-1-oxopropan-2-yl)-[2,3′ -bipyridin]-6′-yl)methyl)acrylamide (assumed)]
850 nM	–	–	–	C=CC(=O)NCc1ccc(-c2ccc([C@@H](C)C(=O)Nc3cc(-c4cnn5c4CC(C)(C)C5)c(Cl)cn3)cn2)cn1 [Compound 20-2, (R)-N-((5-(1-((5-chloro-4-(5,5-dimethyl-5,6-dihydro-4H-pyrrolo[1,2-b]pyrazol-3-yl)pyridin-2-yl)amino)-1-oxopropan-2-yl)-[2,3′ -bipyridin]-6′-yl)methyl)acrylamide (assumed)]
